These results are taken from patent US20130089912A1, “METHODS AND COMPOSITIONS FOR THE STABILIZATION OF BIOLOGIC MATERIAL” (priority 2011, published 2013).

Where “and” joins values, the source holds several entries; their conditions need not be identical. Equal values may be shown once. Where a name gives a salt, the structure may show the parent alone. Read-outs that look alike come from different tables or passages of the source.

By EC50 is commonly meant the concentration giving half of the maximal effect.

For data set [1] the following is noted: choline salt of the named anion.
The nature of data set [2]: Differential scanning calorimetry of DPPC unilamellar vesicles mixed with test compound (screening assay for toxic membrane interactions). Background: Differential scanning calorimetry records heat flow against a reference as temperature is scanned.
Data set [3] has as its system mouse macrophage cell line. The following applies: cited from earlier work; for Log EC50: logarithm of EC50 in uM, matches the EC50 values of Weaver et al. (2010).
Setting [4] is: 10 mM compound, DPPC liposomes, HEPES buffer pH 7.40.
Setting [5] is: 10 mM compound, DPPC liposomes, HEPES buffer pH 7.40, scan 20 to 50° C., equilibrium scans.
The mark [6] stands for this setting: 10 mM compound, compared to DPPC control scan from same LUV batch solution.
The mark [7] stands for this setting: choline salt 10 mM, DPPC vesicle assay, Table 2.
The mark [8] stands for this setting: cellular toxicity, values reproduced from Weaver et al. (2010).
Where [9] appears, read: 10 mM compound, DPPC liposomes, HEPES buffer pH 7.40, NR = not resolvable.
[10] abbreviates: 10 mM compound, initial heating scan.

“2-hydroxyethyl(trimethyl)azanium bis(2,4,4-trimethylpentyl)phosphinate [CTMP]”: the “Log Pow” value in data set [1] was 3.60. For the same compound, in data set [2] (10 mM compound), the “Decrease of peak width (ΔΔT1/2) compared to control lipid vesicles” value was 17%; the “Effect on DPPC main gel-liquid crystal phase transition (in words)” value (shortened to “Effect”) was “large decrease in Tm and enthalpy, and increased cooperativity”; the “Reduction of main transition Tm compared to DPPC alone” value was determined as 21%. In addition, in data set [2] (setting [4]), the “Main Transition ΔH” value came to 3.58 kcal/mol and the “Main Transition ΔT(1/2)” value came out at 1.48 °C. Further, the “Main Transition Tm” value in data set [2] (setting [5]) is 32.6 °C and 33 °C and 32.58 °C. Further, in data set [2] (setting [6]), the “Change in Main Transition ΔTm” value is reported as −21%, the “Change in Main Transition ΔΔH” value is reported as −52%, the “Change in Main Transition ΔΔT(1/2)” value is −17% and the “Change in Pretransition ΔH” value is recorded as −100%. Also, the “Reduction of transition enthalpy (in words)” value in data set [2] (10 mM compound, compared to control lipid vesicles) is “half”. Further, in data set [2] (10 mM compound, peak normally at approximately 34° C.), the “Pretransition peak of DPPC (in words)” value was “below resolvable limits”. In addition, in data set [2] (setting [7]), the “Δ Tm” value was −8.08 C, the “ΔΔ H” value was −2011 cal/mole/ C and the “ΔΔ T(1/2)” value was −0.37 C. Besides, the EC50 in data set [3] (setting [8]) was less than 0.25 mM. Moreover, in data set [3], the “Log EC50” value is 2.39 uM.

Regarding “2-hydroxyethyl(trimethyl)azanium bis(2-ethylhexyl)phosphate [CBEH]”, in data set [2] (setting [4]), the “Main Transition ΔH” value was determined as 0.077 kcal/mol and the “Main Transition ΔT(1/2)” value was 2.95 °C. In addition, in data set [2] (setting [5]), the “Main Transition Tm” value was 42.49 °C. Besides, the “Pretransition ΔH” value in data set [2] (setting [9]) was found to be 0.066 kcal/mol. In data set [2] (setting [6]), the “Change in Main Transition ΔTm” value is on record as “+2.5%”, the “Change in Main Transition ΔΔH” value was −99%, the “Change in Main Transition ΔΔT(1/2)” value was “+16%” and the “Change in Pretransition ΔH” value is given as −82%. In addition, in data set [2] (setting [10]), the Main transition temperature is approximately 41 °C, the Pretransition temperature was approximately 33 °C, the “Reduction in main transition enthalpy compared to DPPC in HEPES alone” value is listed as 99% and the “Reduction in pretransition enthalpy compared to DPPC in HEPES alone” value is on record as 82%. The “Third prominent peak (subtransition) temperature” value in data set [2] (setting [10]) was 27 °C. Besides, the “New peak Tm” value in data set [2] (DPPC-CBEH dispersions run starting at 10° C., first heating scan) came out at 21 °C. The EC50 in data set [3] (setting [8]) is less than 0.3 mM.

Turning to “2-hydroxyethyl(trimethyl)azanium dibutyl phosphate [CDBP]”, in data set [2] (10 mM compound), the “Effect” value is recorded as “no statistically significant effect”. In data set [2] (setting [4]), the “Main Transition ΔH” value amounted to 7.831 kcal/mol and the “Main Transition ΔT(1/2)” value was 1.50 °C. Besides, the “Main Transition Tm” value in data set [2] (setting [5]) came out at 41.05 °C. For the same compound, the “Pretransition ΔH” value in data set [2] (setting [9]) amounted to 0.44 kcal/mol. Besides, in data set [2] (setting [6]), the “Change in Main Transition ΔTm” value is listed as −0.5%, the “Change in Main Transition ΔΔH” value is given as “+2%”, the “Change in Main Transition ΔΔT(1/2)” value is listed as −6% and the “Change in Pretransition ΔH” value is listed as −20%. Moreover, the EC50 in data set [3] (setting [8]) is 9 mM and 9.1 mM.

For `C[N+](C)(C)CCO.[Cl-]` [CCL, choline chloride, reference compound], in data set [2], the “Change in Main Transition ΔTm” value was “+0.8%”, the “Change in Main Transition ΔΔH” value is on record as “+15%”, the “Change in Main Transition ΔΔT(1/2)” value is recorded as −3% and the “Change in Pretransition ΔH” value is given as “+51%”. In data set [2] (pH 7.4), the “Main Transition Tm” value came to 41.70 °C, the “Main Transition ΔH” value was determined as 9.633 kcal/mol, the “Main Transition ΔT(1/2)” value was 1.55 °C and the “Pretransition ΔH” value is 0.378 kcal/mol. For the same compound, the EC50 in data set [3] is 34 mM.

`C[N+](C)(C)CCO.O=P([O-])(O)O` [CDHP, 2-hydroxyethyl(trimethyl)azanium dihydrogen phosphate]: the “Log Pow” value in data set [1] was −3.15. Also, the “Effect” value in data set [2] (10 mM compound) is listed as “no statistically significant effect”. Also, in data set [2] (setting [4]), the “Main Transition ΔH” value came out at 7.949 kcal/mol and the “Main Transition ΔT(1/2)” value turned out to be 1.33 °C. Moreover, the “Main Transition Tm” value in data set [2] (setting [5]) is 41.69 °C. The “Pretransition ΔH” value in data set [2] (setting [9]) was 0.248 kcal/mol. In data set [2] (setting [6]), the “Change in Main Transition ΔTm” value was “+0.7%”, the “Change in Main Transition ΔΔH” value was “+3%”, the “Change in Main Transition ΔΔT(1/2)” value is listed as −6% and the “Change in Pretransition ΔH” value is reported as −54%. For the same compound, in data set [2] (setting [7]), the “Δ Tm” value is listed as “+0.52 C”, the “ΔΔ H” value is −76 cal/mole/ C and the “ΔΔ T(1/2)” value is given as 0.131 C. For the same compound, the EC50 in data set [3] (setting [8]) was 20 mM. The “Log EC50” value in data set [3] was 4.31 uM.

`CC(C)Cc1ccc(C(C)C(=O)[O-])cc1.[Na+]` (stereo not drawn) [Ibuprofen sodium salt, ibuprofen sodium salt, reference compound]: in data set [2] (setting [4]), the “Main Transition ΔH” value is 7.222 kcal/mol and the “Main Transition ΔT(1/2)” value was 1.79 °C. The “Main Transition Tm” value in data set [2] (setting [5]) came out at 38.82 °C. In addition, the “Pretransition ΔH” value in data set [2] (setting [9]) turned out to be 0.375 kcal/mol. Further, in data set [2] (setting [6]), the “Change in Main Transition ΔTm” value is −6%, the “Change in Main Transition ΔΔH” value was −11%, the “Change in Main Transition ΔΔT(1/2)” value is “+12%” and the “Change in Pretransition ΔH” value was −13%.

In the case of `CC(=O)CCC(=O)O` [Levulinate], the “Effect” value in data set [2] (10 mM compound) is “a moderate decrease in Tm, and a large decrease in enthalpy”. Further, in data set [2] (setting [7]), the “Δ Tm” value was −0.21 C, the “ΔΔ H” value is listed as −2155 cal/mole/ C and the “ΔΔ T(1/2)” value was determined as 0.39 C.

As for `[Cl-].[Na+]` [NaCl, sodium chloride, reference compound], in data set [2], the “Change in Main Transition ΔTm” value is on record as “+0.8%”, the “Change in Main Transition ΔΔH” value was “+17%”, the “Change in Main Transition ΔΔT(1/2)” value is recorded as −4% and the “Change in Pretransition ΔH” value is given as “+103%”. For the same compound, in data set [2] (pH 7.4), the “Main Transition Tm” value turned out to be 41.72 °C, the “Main Transition ΔH” value worked out at 9.823 kcal/mol, the “Main Transition ΔT(1/2)” value turned out to be 1.53 °C and the “Pretransition ΔH” value came to 0.508 kcal/mol. Also, the EC50 in data set [3] was 63 mM and 60 mM.

On to `CNCCC=C1c2ccccc2CCc2ccccc21` [Nortriptyline hydrochloride, nortriptyline hydrochloride, reference compound], for which the “Effect” value in data set [2] (10 mM compound) is on record as “shifted to lower temperatures, with notable main peak broadening”. For the same compound, in data set [2] (setting [4]), the “Main Transition ΔH” value amounted to 8.078 kcal/mol and the “Main Transition ΔT(1/2)” value amounted to 1.41 °C. Moreover, in data set [2] (setting [5]), the “Main Transition Tm” value was 30.66 °C. In data set [2] (setting [6]), the “Change in Main Transition ΔTm” value is given as −26%, the “Change in Main Transition ΔΔH” value is “+8%”, the “Change in Main Transition ΔΔT(1/2)” value is reported as “+6%” and the “Change in Pretransition ΔH” value was −100%.

For choline formate, in data set [2], the “Effect” value is “a moderate increase in Tm and a moderate decrease in enthalpy”; the “Δ Tm” value is reported as “+0.31 C”. Besides, in data set [2] (setting [7]), the “ΔΔ H” value is −733 cal/mole/ C and the “ΔΔ T(1/2)” value was −0.02 C.

On to choline lactate, for which the “Log Pow” value in data set [1] was −1.73. For the same compound, in data set [2] (10 mM compound), the “Effect” value was “a moderate increase in Tm and a moderate decrease in enthalpy”. In addition, in data set [2] (setting [7]), the “Δ Tm” value is “+0.37 C”, the “ΔΔ H” value is listed as −480 cal/mole/ C and the “ΔΔ T(1/2)” value was −0.06 C.

Consider choline tartarate, for which, in data set [2], the “Δ Tm” value is given as “+0.35 C”. Besides, in data set [2] (setting [7]), the “ΔΔ H” value is listed as “+121.9 cal/mole/ C” and the “ΔΔ T(1/2)” value was −0.03 C.
